In patent US20060269924A1, “Modulation of telomere-initiated cell signaling” (TRUSTEES OF BOSTON UNIVERSITY, priority 2003, published 2006):
{P} = phosphate

What was measured:
[1] = tested on: T-oligo-induced total p53, p21, p53 serine 15 phosphorylation; experiment: PARP inhibitor pretreatment and T-oligo responses, western blot; type: cell-based; conditions: fibroblasts, 40 μM T-oligo, 48 hours; 3AB 2.5 mM or IQ 100 μM
Method: To investigate the role of PARPs in responses to T-oligo, fibroblasts were pretreated with one of two different PARP inhibitors, 3-aminobenzamide (3AB, 2.5 mM) or […] (IQ, 100 μM) for 2 hours before addition of 40 μM T-oligo or an equal amount of diluent as a control. An additional dose of each inhibitor was given to the cells 4 hours after addition of the T-oligo or diluent (D). Fibroblasts were treated with 3AB and T-oligo, then collected 48 hours later for western blot. T-oligo-induced upregulation of total p53, p21, phosphorylation of p53 serine 15 (indicating p53 activation) were all reduced in the presence of 3AB (FIG. 17A).

[2] = tested on: p53 serine 15 phosphorylation and p21 induction in response to TRF2^DN; experiment: PARP inhibitors and response to TRF2^DN, western analysis; type: cell-based; conditions: neonatal fibroblasts, AdTRF2DN, 3 days; 3AB 2.5 mM or IQ 100 μM
Method: The graphs show densitometric readings of the western blots, with diluent control set at 100%. FIG. 9f: Lane 1, diluent, GFP; lane 2, diluent TRF2DN; lane 3, 3AB, GFP; lane 4, 3AB, TRF2DN; lane 5, IQ, GFP; lane 6, IQ, TRF2DN.
Neonatal fibroblasts were treated with AdTRF2DN or AdGFP as a negative control. Two hours before infection, cells were treated with either diluent 3AB (2.5 mM) or IQ (100 μM). After 3 days cells were collected for western analysis for the c-myc-tagged TRF2DN (to confirm infection), p53 serine 15 phosphorylation and p21 induction.

[3] = tested on: human fibrosarcoma HT-1080 cells; experiment: SA-β-Gal staining, HT-1080 cells; type: cell-based; conditions: HT-1080 cells, 40 μM, 4 days
Method: (§1) FIG. 13a: Exposure to T-oligo increases SA-β-Gal activity. HT-1080 cells were treated for 4 days with diluent alone or 40 μM T-oligo or the complementary control oligo, then stained and assayed for SA-β-Gal activity. FIG. 13b: Quantitative analysis of SA-β-Gal positive cells. Cells expressing SA-β-Gal activity were counted and presented as percentage of total cells in the cultures. Averages and standard deviations were calculated from 3 representative fields from each of 3 independent experiments. FIG. 13c: Effect of T-oligo on cell proliferation. Cells were treated for 4 days as in FIG. 12 and assayed for DNA synthesis by BrdU incorporation. FIG. 13d: Quantitative analysis of BrdU incorporation. Dark black nuclei indicate BrdU incorporated into nuclear DNA. BrdU positive cells were calculated and presented as percentage of total cells in the cultures. Averages and standard deviations were calculated from 3 representative fields from each of 3 independent experiments. FIG. 13e: Effect of T-oligo on pRb phosphorylation. Cells were treated as in FIG. 13a and were then collected for protein analysis by western blot using 30 μg total protein and probed for pRb-ser780*, ser795* and ser807/811* (pRb phosphorylated at serine 780, serine 795 and serine 807/811 respectively). Lanes D, T and C contain protein samples from cells treated with diluent, T-oligo and complementary oligo respectively. β-actin was used as a loading control.
Parallel cultures were treated as described in FIG. 13a. Cells were then washed once with PBS and refed with complete medium without additional treatment for 24 hours or 48 hours. FIG. 14a: SA-β-Gal activity. Cells were stained for SA-β-Gal activity. […]
TRF2^DN has been reported to induce a senescent phenotype in human fibrosarcoma HT-1080 cells. To determine whether exposure to the telomere 3′ overhang DNA (T-oligo) also induces senescence in these cells, HT-1080 cells (American Type Culture Collection; Manassas, Va.) were treated with either diluent alone, T-oligo or the complementary oligo as a control, for 4 days and then assessed for SA-β-Gal activity. […]

[4] = tested on: HT-1080 human fibrosarcoma cells; experiment: Clonogenic assay; type: cell-based; conditions: HT-1080, 40 μM for one week, then replated 2 weeks without treatment
Method: Cells were treated with diluent, 40 μM T-oligo or complementary oligo for one week, and then assayed. FIG. 15a: Appearance of stained dishes. FIG. 15b: Quantification of clonogenic capacity. Colonies of triplicate cultures were counted and plotted as percentage of diluent treated control.
Human fibrosarcoma cells were treated with diluent alone, 40 μM T-oligo or 40 μM complementary oligo for one week and were then trypsinized and counted. 300 cells were seeded into 60 mm culture dishes in triplicate and then incubated in complete medium for 2 weeks with medium changed twice per week. Subsequently, the cells were fixed for 5 min in 100% methanol. The methanol was then removed and the culture dishes were rinsed briefly with water. The colonies were stained for 10 min in 4% (w/v) methylene blue solution in PBS, washed once again with water, and then counted.
To determine the long-term effect of T-oligo treatment on cell growth, HT-1080 human fibrosarcoma cells were treated with either diluent alone, 40 μM T-oligo or 40 μM complementary control oligo for one week and then an equal number of cells were replated and medium was changed twice per week for 2 weeks with no further treatment, and then stained with methylene blue (FIG. 15a).

[5] = tested on: HT-1080 fibrosarcoma cells; experiment: Telomere length (mean TRF length) assay; type: cell-based, human; conditions: HT-1080 cells, 40 μM, 4 days
Method: Cells were treated as described in FIG. 13a. Lanes 1, 2, 3 contain genomic DNA from cells treated with diluent (D), T-oligo (T), or complementary oligo (C). Lanes 4 and 5 contain high (H) molecular and low (L) molecular weight standard telomeric DNA.
HT-1080 fibrosarcoma cells were treated with diluent, 40 μM T-oligo or 40 μM complementary oligo for 4 days and then the genomic DNA was isolated using the DNeasy Tissue Kit (Qiagen, Valencia, Calif.). Telomere length was determined using the Telo TTAGGG Telomere Length Assay (Roche Molecular Biochemicals, Indianapolis, Ind.) following the protocol supplied by the manufacturer. […] Terminal restriction fragments (TRF) were detected by chemiluminescence. The mean TRF length was calculated by scanning the exposed X-ray film with a densitometer and calculated as previously described (Harley et al. [1990] Telomeres shorten during ageing of human fibroblasts. Nature 345, 458-460).
To determine the affect of T-oligos on the mean telomere length (MTL) in HT-1080 cells, cells were analyzed after treatment with T-oligo for 4 days which corresponded to the time that the senescent phenotype was readily observed. […] The less than 100 bp difference in calculated MTL is within the range of experimental variation and is not significant.

[6] = tested on: p95 phosphorylated at serine 343; experiment: p95 serine 343 phosphorylation after tankyrase siRNA, western blotting and densitometry; type: cell-based, human; conditions: 24 hours
Method: Paired cultures of human fibroblasts were treated once with tankyrase siRNA, with a non-specific siRNA (control) or were mock transfected as a second control. […] After an additional 24 hours, cells were collected and processed for western blotting using an antibody specific for p95 phosphorylated at serine 343, indicating p95 modification by activated ATM kinase. The film was then subjected to densitometry and the diluent control for each group of cells was set at 1.0 in arbitrary units (FIG. 19). As expected, in cells with normal tankyrase levels the T-oligo treated cells had twice the amount of phosphorylated p95, while the control oligo-treated or diluent-treated cells had only a 30-40% increase.

[7] = tested on: HT-1080 fibrosarcoma cells; experiment: BrdU incorporation assay, HT-1080 cells; type: cell-based, human; conditions: HT-1080 cells, 40 μM, 4 days
Method: as §1
Parallel cultures were treated as described in FIG. 13a. Cells were then washed once with PBS and refed with complete medium without additional treatment for 24 hours or 48 hours. FIG. 14a: SA-β-Gal activity. […]
HT-1080 fibrosarcoma cells cultured on Permanox chamber slides were treated with diluent, 40 μM T-oligo or 40 μM complementary oligo for 4 days and DNA synthesis was assayed using 5-bromo-2′-deoxy-uridine (BrdU) Labeling and Detection Kit II (Roche Molecular Biochemicals, Indianapolis, Ind.) following the protocol supplied by the manufacturer. […] After incubation with anti-mouse-Ig-alkaline phosphatase, the color reaction was detected by light microscopy. […]

[8] = tested on: S91 mouse melanoma cells; experiment: Melanin content of S91 melanoma cells; type: cell-based; conditions: 100 μM
Method: Cultures of S91 mouse melanoma cells (100,000 cells/38 cm^2) were treated with 100 μM pTpT or phosphorothioate pTpT (pTspT) (FIG. 4) or 40 μM 11mer-1 or the phosphorothioate 11mer-1 (11mer-1-S) (FIG. 5) for 6 days and were then collected, counted and assayed for melanin content.
(§2) Duplicate cultures of S91 cells (100,000 cells/39 cm^2) were either sham-irradiated or irradiated with 5 mJ/cm^2 solar-simulated light from a 1 kW xenon arc solar-simulator (XMN 1000-21, Optical Radiation, Azuza, Calif.) metered at 285±5 nm using a research radiometer (model IL1700A, International Light, Newburyport, Mass.). Two sham-irradiated plates were then supplemented with 100 μM pTspT and two irradiated cultures were similarly treated with pTspT. After one week, cells were collected, counted and analyzed for melanin content by dissolving the cell pellets in 1 N NaOH and measuring the optical density at 475 nm. […] However, this response was blocked by the addition of pTspT (FIG. 6). In addition, the constitutive pigmentation of these cells was reduced by the pTspT in the sham-irradiated cultures, similar to the data presented in FIGS. 4 and 5.

[9] = tested on: S91 cells; experiment: UV-induced melanogenesis in S91 cells; type: cell-based, mouse; conditions: 5 mJ/cm^2 solar-simulated light, 100 μM, one week
Method: as §2

Compound: NC(=O)c1cccc(N)c1 [Oligonucleotide 3AB, 3-aminobenzamide]
- T-oligo-induced phosphorylation of p53 serine 15 [1]: reduced
- T-oligo-induced upregulation of p21 [1]: reduced
- T-oligo-induced upregulation of total p53 [1]: reduced
- p21 induction in response to TRF2^DN [2]: reduced
- p53 phosphorylation in response to TRF2^DN [2]: reduced

Compound: pCTAACCCTAAC (DNA, 5' {P}, backbone and methylation of C not given here; listed as Homo sapiens) [Oligonucleotide 11mer-2, reference compound]
- SA-β-Gal positive cells [3]: 6±3%
- clonogenic capacity [4]: 90.5±9.4 % of diluent treated control
- mean telomere length (MTL) [5]: 5.51 kb
- increase in phosphorylated p95 ([6]; human fibroblasts with normal tankyrase levels): 30-40%
- level of p95 phosphorylation (densitometry, diluent control set at 1.0) ([6]; tankyrase knockdown group (tankyrase siRNA)): 1.3 arbitrary units
- BrdU incorporation (BrdU positive cells) [7]: 85±10%

Compound: pTpT
- melanogenesis (melanin content) ([8]; 6 days): stimulated melanogenesis

Compound: pTspT
- UV-induced doubling of melanin content [9]: blocked
- constitutive pigmentation ([8]; 6 days): reduced the constitutive pigmentation
- melanogenesis (melanin content) ([8]; 6 days): did not
- constitutive pigmentation ([8]; sham-irradiated, one week): reduced
